Read-outs that look alike come from different tables or passages of the source.
Key:
p110γ [1] = biological target: T1, p110γ (Mus musculus, UniProt Q9JHG7); design: method as in PMID 16789742; conditions: read-out: biochemical IC50; cited from earlier work
[2] = test system: AKT phosphorylation in bone marrow-derived myeloid cells; assay: AKT phosphorylation in myeloid cells stimulated with macrophage colony stimulating factor; format: cell-based; conditions: data not shown
[3] = test system: LPS-stimulated mouse B cells; assay: IgM secretion by ELISA; format: cell-based; conditions: supernatant after 3 days
Excerpt: We also evaluated plasmablast differentiation and IgM secretion in LPS-stimulated cells (Figure 5D). […] In cells treated with IPI-3063 or IPI-443, the highest concentrations inhibited plasmablast differentiation to the same degree as GDC-0941.
For cell culture ELISA to measure total IgM, supernatants from purified B cells stimulated with LPS were collected after 3 days and diluted 1:1,000 in 2% (wt/vol) BSA in PBS. Nunc Maxisorp plates (Thermo Fisher) were coated with anti-mouse IgM (RMM-1; BioLegend) at 10 µg/mL in 50 µL of total sample in PBS and allowed to incubate overnight at 4°C. Diluted supernatant samples were incubated on coated plates for 1 h at 37°C. HRP-conjugated rabbit anti-mouse IgM secondary antibody (Zymed) was used.

p110α [4] = biological target: T2, p110α (Homo sapiens, UniProt P42336); assay: PI3K enzymatic assay (ADP-Glo) with purified enzymes; conditions: purified enzyme, mean ± spread (n), read-out: Biochemical IC50
T2 construct: heterodimers consisting of full length p110α, p110β, or p110δ catalytic subunit and the p85α regulatory subunit; purchased Millipore 14-602-K
Description: (§1) Human recombinant PI3K-α (cat. no. 14-602-K), -β (cat. no. 14-603-K), -δ (cat. no. 14-604-K), and -γ (cat. no. 14-558-K) were purchased from Millipore. Phosphatidylinositol 4,5 bis phosphate (diC8-PtdIns(4,5)P2) was purchased from Avanti Polar Lipids, Inc. PI3K-α, β, and δ are heterodimers consisting of full length p110α, p110β, or p110δ catalytic subunit and the p85α regulatory subunit. PI3K-γ is a monomer of the p110γ catalytic subunit. Samples of kinase (10 nM—α, β, and δ; 20 nM—γ) were incubated with inhibitor for 30 min at room temperature in reaction buffer (15 mM HEPES pH 7.4, 20 mM NaCl, 1 mM EGTA, 0.02% Tween 20, 10 mM MgCl2, 0.2 mg/mL bovine-γ-globulins) followed by addition of ATP/diC8-PtdIns(4,5)P2 mixture to give final concentrations of 3 mM ATP and 500 µM diC8-PtdIns(4,5)P2. Reactions were incubated at room temperature for 2 h, with PI3K activity assessed via the Promega ADP-Glo Max assay kit (cat. no. V7002) according to the manufacturer’s instruction. Plates were read on Envision plate reader in luminescence mode.

p110γ [5] = biological target: T3, p110γ (Homo sapiens, UniProt P48736); assay: as above; conditions: purified enzyme, mean ± spread (n), read-out: Biochemical IC50
T3 construct: purchased Millipore 14-558-K
Description: as §1

p110δ [6] = biological target: T4, p110δ (Homo sapiens, UniProt O00329); assay: as above; conditions: purified enzyme, mean ± spread (n), read-out: Biochemical IC50
T4 construct: heterodimers consisting of full length p110α, p110β, or p110δ catalytic subunit and the p85α regulatory subunit; purchased Millipore 14-604-K
Description: as §1

p110γ [7] = biological target: T1, p110γ; assay: isoform-specific cell-based assay, pAKT S473 ELISA; design: endogenous in cells; host or cells: Raw264.7; conditions: read-out: Cellular IC50
Description: (§2) Phospho-Akt1 (S473) sandwich ELISA antibody kit (Cell Signaling Technology, cat. no. 7143) was utilized to analyze pAKT signal in cells as described previously by Winkler et al. ([11]) (for data see Table 2). Briefly, SKOV3 and 786.0 cells were seeded into 96-well cell culture-graded plates at a density of […] per 200 µl culture media per well. Raji and Raw264.7 were seeded at the same density in FBS-free media. After overnight incubation at 5% CO2 and 37°C, the cells were treated with inhibitor for 30 min. Raji cells were stimulated with 10 µg/mL anti-human IgM (Jackson ImmunoResearch) for 30 min and Raw264.7 cells with 25 nM C5a (RnD Systems) for 3 min in the presence of inhibitor. SKOV3 and 786.0 cells were not stimulated. Medium was then aspirated and 50 µL/well of ice-cold lysis buffer was added. pAKT level was determined according to the manufacturer’s instruction.

p110β [8] = biological target: T5, p110β (Homo sapiens, UniProt P42338); assay: isoform-specific cell-based assay, pAKT S473 ELISA; design: endogenous in cells; host or cells: 786.0; conditions: read-out: Cellular IC50
Description: as §2

[9] = design: method as in PMID 24211136; conditions: cited from earlier work
p110β [10] = biological target: T5, p110β; assay: PI3K enzymatic assay (ADP-Glo) with purified enzymes; design: heterodimers consisting of full length p110α, p110β, or p110δ catalytic subunit and the p85α regulatory subunit; purchased Millipore 14-603-K; conditions: purified enzyme, mean ± spread (n), read-out: Biochemical IC50
Description: as §1

p110δ [11] = assay: isoform-specific cell-based assay, pAKT S473 ELISA
Description: as §2

p110α [12] = assay: isoform-specific cell-based assay, pAKT S473 ELISA; conditions: read-out: Cellular IC50
Description: as §2

T1 sequence (Q9JHG7 whole entry): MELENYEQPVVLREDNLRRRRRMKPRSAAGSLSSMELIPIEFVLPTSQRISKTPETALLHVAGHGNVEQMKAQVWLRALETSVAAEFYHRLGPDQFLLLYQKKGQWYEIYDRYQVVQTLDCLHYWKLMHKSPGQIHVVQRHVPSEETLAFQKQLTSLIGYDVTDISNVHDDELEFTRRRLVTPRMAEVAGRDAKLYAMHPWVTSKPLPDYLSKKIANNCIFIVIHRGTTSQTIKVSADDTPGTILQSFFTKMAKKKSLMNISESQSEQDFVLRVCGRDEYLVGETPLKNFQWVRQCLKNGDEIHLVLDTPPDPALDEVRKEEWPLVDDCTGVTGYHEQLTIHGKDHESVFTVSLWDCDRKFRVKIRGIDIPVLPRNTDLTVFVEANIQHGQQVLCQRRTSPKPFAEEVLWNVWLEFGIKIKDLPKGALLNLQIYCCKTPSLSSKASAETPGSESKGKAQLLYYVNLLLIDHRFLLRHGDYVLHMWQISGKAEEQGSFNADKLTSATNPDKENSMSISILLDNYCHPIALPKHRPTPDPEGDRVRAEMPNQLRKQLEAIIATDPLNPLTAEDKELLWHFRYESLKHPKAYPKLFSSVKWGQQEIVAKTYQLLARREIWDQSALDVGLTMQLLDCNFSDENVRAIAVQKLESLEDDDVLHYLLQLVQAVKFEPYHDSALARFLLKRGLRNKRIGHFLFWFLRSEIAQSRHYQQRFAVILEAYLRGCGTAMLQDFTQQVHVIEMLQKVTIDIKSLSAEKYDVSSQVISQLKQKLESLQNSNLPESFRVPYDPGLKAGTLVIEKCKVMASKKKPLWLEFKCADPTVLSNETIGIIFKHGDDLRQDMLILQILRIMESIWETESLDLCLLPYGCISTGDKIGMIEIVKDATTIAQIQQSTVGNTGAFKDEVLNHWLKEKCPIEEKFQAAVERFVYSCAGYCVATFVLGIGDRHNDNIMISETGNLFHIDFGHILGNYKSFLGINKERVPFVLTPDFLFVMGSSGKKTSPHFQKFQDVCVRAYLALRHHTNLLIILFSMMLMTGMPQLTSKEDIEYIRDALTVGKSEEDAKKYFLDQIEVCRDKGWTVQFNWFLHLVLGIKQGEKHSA
T5 sequence (P42338 whole entry, canonical isoform): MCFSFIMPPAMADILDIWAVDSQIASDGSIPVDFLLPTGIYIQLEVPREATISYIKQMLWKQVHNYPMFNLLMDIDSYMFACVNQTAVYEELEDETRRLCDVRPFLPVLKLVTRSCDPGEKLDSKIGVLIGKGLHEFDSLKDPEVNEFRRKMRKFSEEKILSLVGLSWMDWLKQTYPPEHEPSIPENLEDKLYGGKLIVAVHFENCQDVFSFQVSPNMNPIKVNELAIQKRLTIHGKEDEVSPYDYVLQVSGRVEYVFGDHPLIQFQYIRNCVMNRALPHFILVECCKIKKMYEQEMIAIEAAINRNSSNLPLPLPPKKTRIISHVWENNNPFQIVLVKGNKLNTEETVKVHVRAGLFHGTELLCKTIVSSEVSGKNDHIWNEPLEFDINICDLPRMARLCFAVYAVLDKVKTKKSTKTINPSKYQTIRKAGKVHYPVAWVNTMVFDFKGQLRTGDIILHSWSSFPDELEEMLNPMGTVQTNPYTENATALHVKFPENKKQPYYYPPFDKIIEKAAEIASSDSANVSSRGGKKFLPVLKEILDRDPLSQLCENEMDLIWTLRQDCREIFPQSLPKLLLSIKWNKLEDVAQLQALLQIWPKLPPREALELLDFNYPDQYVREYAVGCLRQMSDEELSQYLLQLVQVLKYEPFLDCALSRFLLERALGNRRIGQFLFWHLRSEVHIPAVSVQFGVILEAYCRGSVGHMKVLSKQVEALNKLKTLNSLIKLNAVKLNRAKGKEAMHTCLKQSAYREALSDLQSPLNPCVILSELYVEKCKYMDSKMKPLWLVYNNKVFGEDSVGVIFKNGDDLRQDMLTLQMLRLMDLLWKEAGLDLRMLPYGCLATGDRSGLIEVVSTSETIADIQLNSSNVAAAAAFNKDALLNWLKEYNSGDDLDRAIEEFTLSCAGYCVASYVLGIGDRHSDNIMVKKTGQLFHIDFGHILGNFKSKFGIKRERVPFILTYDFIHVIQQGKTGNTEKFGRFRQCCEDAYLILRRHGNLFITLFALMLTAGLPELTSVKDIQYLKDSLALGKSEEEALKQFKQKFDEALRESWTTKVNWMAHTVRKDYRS
T5 sequence (P27986 whole entry partner, canonical isoform): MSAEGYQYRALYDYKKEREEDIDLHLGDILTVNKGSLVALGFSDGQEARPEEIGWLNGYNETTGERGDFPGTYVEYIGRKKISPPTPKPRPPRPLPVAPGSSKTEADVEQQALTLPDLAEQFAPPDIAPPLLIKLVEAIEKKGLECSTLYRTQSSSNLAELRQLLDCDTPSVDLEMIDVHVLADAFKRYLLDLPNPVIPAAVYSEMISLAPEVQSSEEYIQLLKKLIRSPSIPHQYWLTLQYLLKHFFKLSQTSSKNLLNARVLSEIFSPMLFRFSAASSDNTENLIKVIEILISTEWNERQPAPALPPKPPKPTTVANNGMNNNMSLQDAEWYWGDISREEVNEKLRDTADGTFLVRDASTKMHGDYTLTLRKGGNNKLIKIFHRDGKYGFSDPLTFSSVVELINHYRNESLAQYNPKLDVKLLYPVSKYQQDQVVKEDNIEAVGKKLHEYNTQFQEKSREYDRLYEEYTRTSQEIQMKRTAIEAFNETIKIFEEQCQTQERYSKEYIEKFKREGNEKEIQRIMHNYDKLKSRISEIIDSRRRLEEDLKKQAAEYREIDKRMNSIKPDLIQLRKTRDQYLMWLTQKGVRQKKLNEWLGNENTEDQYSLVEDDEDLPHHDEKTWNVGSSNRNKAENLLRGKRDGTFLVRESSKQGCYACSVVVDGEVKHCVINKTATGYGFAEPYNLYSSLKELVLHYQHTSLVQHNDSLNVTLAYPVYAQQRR
T3 sequence (P48736 whole entry): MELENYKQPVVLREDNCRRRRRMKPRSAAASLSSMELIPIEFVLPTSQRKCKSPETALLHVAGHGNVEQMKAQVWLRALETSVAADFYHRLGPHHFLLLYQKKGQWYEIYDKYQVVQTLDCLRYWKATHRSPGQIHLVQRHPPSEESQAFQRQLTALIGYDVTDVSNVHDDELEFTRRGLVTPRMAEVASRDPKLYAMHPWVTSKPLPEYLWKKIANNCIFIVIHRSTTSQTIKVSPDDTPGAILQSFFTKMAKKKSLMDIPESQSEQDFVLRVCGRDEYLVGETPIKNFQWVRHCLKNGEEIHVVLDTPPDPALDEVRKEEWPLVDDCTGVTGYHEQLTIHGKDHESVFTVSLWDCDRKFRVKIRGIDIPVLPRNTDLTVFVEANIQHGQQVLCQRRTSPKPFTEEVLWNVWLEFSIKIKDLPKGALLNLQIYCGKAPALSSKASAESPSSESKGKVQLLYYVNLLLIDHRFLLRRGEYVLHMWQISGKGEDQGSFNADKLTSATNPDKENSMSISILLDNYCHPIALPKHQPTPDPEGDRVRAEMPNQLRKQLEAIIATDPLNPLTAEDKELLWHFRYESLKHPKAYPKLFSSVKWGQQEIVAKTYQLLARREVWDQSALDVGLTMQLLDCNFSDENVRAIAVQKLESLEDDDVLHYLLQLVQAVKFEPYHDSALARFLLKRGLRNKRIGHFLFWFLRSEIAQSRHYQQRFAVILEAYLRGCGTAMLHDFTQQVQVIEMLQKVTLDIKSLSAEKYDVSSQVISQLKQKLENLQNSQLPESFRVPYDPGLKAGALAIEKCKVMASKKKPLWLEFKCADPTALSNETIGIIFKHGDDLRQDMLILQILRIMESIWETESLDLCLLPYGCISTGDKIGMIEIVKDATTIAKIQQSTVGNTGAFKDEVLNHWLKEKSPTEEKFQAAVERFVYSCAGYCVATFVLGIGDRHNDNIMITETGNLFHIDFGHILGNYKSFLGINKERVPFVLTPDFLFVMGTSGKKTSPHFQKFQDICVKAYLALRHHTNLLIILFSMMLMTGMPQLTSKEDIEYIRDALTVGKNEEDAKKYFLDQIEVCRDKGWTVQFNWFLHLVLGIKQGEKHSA
T2 sequence (P42336 whole entry): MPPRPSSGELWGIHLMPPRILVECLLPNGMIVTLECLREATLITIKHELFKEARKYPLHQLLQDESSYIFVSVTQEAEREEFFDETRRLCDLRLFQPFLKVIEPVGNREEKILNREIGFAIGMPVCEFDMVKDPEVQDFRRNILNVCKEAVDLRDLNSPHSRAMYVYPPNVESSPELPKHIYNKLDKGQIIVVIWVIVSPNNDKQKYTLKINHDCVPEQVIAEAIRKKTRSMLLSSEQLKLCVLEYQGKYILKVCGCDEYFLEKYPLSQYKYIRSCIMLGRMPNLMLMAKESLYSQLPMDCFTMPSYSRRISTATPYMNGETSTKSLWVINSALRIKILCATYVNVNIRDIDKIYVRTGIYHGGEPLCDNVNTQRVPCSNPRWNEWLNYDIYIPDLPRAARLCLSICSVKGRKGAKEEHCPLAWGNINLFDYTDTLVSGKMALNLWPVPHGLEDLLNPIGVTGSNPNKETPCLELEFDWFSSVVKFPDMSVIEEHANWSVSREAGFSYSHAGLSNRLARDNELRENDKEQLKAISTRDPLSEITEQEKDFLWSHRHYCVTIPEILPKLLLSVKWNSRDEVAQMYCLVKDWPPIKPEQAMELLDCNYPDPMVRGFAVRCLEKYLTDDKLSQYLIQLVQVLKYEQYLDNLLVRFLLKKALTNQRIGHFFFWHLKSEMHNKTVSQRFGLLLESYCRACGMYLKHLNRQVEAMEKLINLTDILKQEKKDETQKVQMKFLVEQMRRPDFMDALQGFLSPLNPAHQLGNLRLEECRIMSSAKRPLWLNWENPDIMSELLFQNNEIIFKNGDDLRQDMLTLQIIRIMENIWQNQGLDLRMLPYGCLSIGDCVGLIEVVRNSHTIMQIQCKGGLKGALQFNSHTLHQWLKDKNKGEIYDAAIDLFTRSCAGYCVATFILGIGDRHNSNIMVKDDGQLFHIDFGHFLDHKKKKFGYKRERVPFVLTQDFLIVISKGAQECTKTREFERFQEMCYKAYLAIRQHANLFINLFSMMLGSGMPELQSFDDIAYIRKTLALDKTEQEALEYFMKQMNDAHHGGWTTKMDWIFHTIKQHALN
T2 sequence (P27986 whole entry partner): as the sequence (P27986 whole entry partner, canonical isoform) above

| SMILES | IC50 (p110γ [1]) [nM] | effect on AKT phosphorylation [2] | effect on IgM secretion [3] | IC50 (p110α [4]) [nM] | IC50 (p110γ [5]) [nM] | IC50 (p110δ [6]) [nM] | IC50 (p110γ [7]) [nM] | IC50 (p110β [8]) [nM] | pharmacokinetics in mice [9] | IC50 (p110β [10]) [nM] | cellular IC50 values for the other class I PI3K isoforms relative to p110δ (p110δ [11]; other class I isoforms vs p110δ, cell-based) | IC50 (p110δ [11]; p110δ-specific cell-based assay, pAKT S473, read-out: Cellular IC50) [nM] | IC50 (p110α [12]) [nM] |
| --- | --- | --- | --- | --- | --- | --- | --- | --- | --- | --- | --- | --- | --- |
| O=C1NC(=O)/C(=C/c2ccc(-c3ccc(F)cc3O)o2)S1 [AS-252424, reference compound] | 30 | dose-dependent inhibition | no significant effect |  |  |  |  |  |  |  |  |  |  |
| CC(C)n1c([C@H](C)Nc2ncnc(N)c2C#N)cc2cccc(-c3ccc(=O)n(C)c3)c2c1=O [IPI-3063] |  |  |  | 1170 | 2190 | 2.5 ± 1.2 | 419 ± 117 | 103 ± 35.7 | good | 1510 | at least 1,000 fold | 0.1 ± 0.01 | 1900 |

From paper PMC5491903, “The Selective Phosphoinoside-3-Kinase p110δ Inhibitor IPI-3063 Potently Suppresses B Cell Survival, Proliferation, and Differentiation” (Frontiers in Immunology, 2017)
